Data taken from paper PMC5218480 (PLoS ONE, 2017).

Tested on: MV-4-11 cells
Experiment: Gene expression microarray analysis (Affymetrix PrimeView) and GSEA
Assay type: cell-based, human
Parameters: RFU PODN (11730768_x_at) / Fold change /veh PODN (11730768_x_at) / RFU LINC00158 (11744669_a_at) / Fold change /veh LINC00158 (11744669_a_at) / RFU DUSP10 (11751237_a_at) / Fold change /veh DUSP10 (11751237_a_at) / RFU ID3 (11757404_x_at) / Fold change /veh ID3 (11757404_x_at) / RFU PLEKHG5 (11737974_s_at) / Fold change /veh PLEKHG5 (11737974_s_at) / RFU LRRC4B (11730491_at) / Fold change /veh LRRC4B (11730491_at) / RFU GIMAP4 (11747438_a_at) / Fold change /veh GIMAP4 (11747438_a_at) / RFU KRT8 (11758183_x_at) / Fold change /veh KRT8 (11758183_x_at) / RFU CNN1 (11734310_a_at) / Fold change /veh CNN1 (11734310_a_at) / RFU VPS37D (11726825_at) / Fold change /veh VPS37D (11726825_at) / RFU C10orf10 (11716522_x_at) / Fold change /veh C10orf10 (11716522_x_at) / RFU KIR2DL2 /// KIR2DL4 /// KIR2DL5A /// KIR2DL5B /// KIR2DS1 /// KIR2DS2 /// KIR2DS3 /// KIR2DS4 /// KIR3DL3 /// KIR3DL3 /// KIR3DS1 (11738374_at) / Fold change /veh KIR2DL2 /// KIR2DL4 /// KIR2DL5A /// KIR2DL5B /// KIR2DS1 /// KIR2DS2 /// KIR2DS3 /// KIR2DS4 /// KIR3DL3 /// KIR3DL3 /// KIR3DS1 (11738374_at) / RFU C1QL1 (11718748_at) / Fold change /veh C1QL1 (11718748_at) / RFU TMPRSS4 (11747572_a_at) / Fold change /veh TMPRSS4 (11747572_a_at) / RFU HAMP (11756126_x_at) / Fold change /veh HAMP (11756126_x_at) / RFU RNFT2 (11725882_a_at) / Fold change /veh RNFT2 (11725882_a_at) / RFU NR4A2 (11747474_a_at) / Fold change /veh NR4A2 (11747474_a_at) / RFU ABCC12 (11746883_a_at) / Fold change /veh ABCC12 (11746883_a_at) / RFU TMEM136 (11760407_x_at) / Fold change /veh TMEM136 (11760407_x_at) / RFU CLDN22 /// WWC2 (11732394_at) / Fold change /veh CLDN22 /// WWC2 (11732394_at) / RFU HLA-DPB1 (11760878_x_at) / Fold change /veh HLA-DPB1 (11760878_x_at) / RFU SPINT1 (11716480_a_at) / Fold change /veh SPINT1 (11716480_a_at) / RFU GAP43 (11754022_s_at) / Fold change /veh GAP43 (11754022_s_at) / RFU A4GNT (11735810_at) / Fold change /veh A4GNT (11735810_at) / RFU PRB3 (11715151_x_at) / Fold change /veh PRB3 (11715151_x_at) / RFU TUBB4B (11761932_at) / Fold change /veh TUBB4B (11761932_at) / RFU CAPN14 (11732068_a_at) / Fold change /veh CAPN14 (11732068_a_at) / RFU TMCC2 (11721928_a_at) / Fold change /veh TMCC2 (11721928_a_at) / RFU IRGQ (11745062_a_at) / Fold change /veh IRGQ (11745062_a_at) / RFU FAM174B (11720279_a_at) / Fold change /veh FAM174B (11720279_a_at) / RFU TMPRSS4 (11748680_a_at) / Fold change /veh TMPRSS4 (11748680_a_at) / RFU FAM212B (11763350_a_at) / Fold change /veh FAM212B (11763350_a_at) / RFU PLEKHG5 (11743358_a_at) / Fold change /veh PLEKHG5 (11743358_a_at) / RFU ZSCAN30 (11745921_a_at) / Fold change /veh ZSCAN30 (11745921_a_at) / RFU CMKLR1 (11741424_a_at) / Fold change /veh CMKLR1 (11741424_a_at) / RFU LOC101060620 /// MAPK8IP1 (11723275_at) / Fold change /veh LOC101060620 /// MAPK8IP1 (11723275_at) / RFU SPTSSB (11747773_x_at) / Fold change /veh SPTSSB (11747773_x_at) / RFU PRSS12 (11739890_at) / Fold change /veh PRSS12 (11739890_at) / RFU BIN1 (11741810_x_at) / Fold change /veh BIN1 (11741810_x_at) / RFU WNT11 (11732464_a_at) / Fold change /veh WNT11 (11732464_a_at) / RFU C10orf10 (11716521_a_at) / Fold change /veh C10orf10 (11716521_a_at) / RFU C5orf56 (11738089_at) / Fold change /veh C5orf56 (11738089_at) / RFU CYB561 (11721691_x_at) / Fold change /veh CYB561 (11721691_x_at) / RFU ANKRD19P (11752326_a_at) / Fold change /veh ANKRD19P (11752326_a_at) / RFU OR2T12 /// OR2T33 /// OR2T8 (11738714_s_at) / Fold change /veh OR2T12 /// OR2T33 /// OR2T8 (11738714_s_at) / RFU VCAN (11748164_a_at) / Fold change /veh VCAN (11748164_a_at) / RFU JSRP1 (11732532_at) / Fold change /veh JSRP1 (11732532_at) / RFU KRTAP10-11 (11738290_x_at) / Fold change /veh KRTAP10-11 (11738290_x_at) / RFU MYO3A (11730013_a_at) / Fold change /veh MYO3A (11730013_a_at) / RFU EBF3 (11725865_a_at) / Fold change /veh EBF3 (11725865_a_at) / RFU CAMK2N1 (11719241_x_at) / Fold change /veh CAMK2N1 (11719241_x_at) / RFU C5orf56 (11738088_a_at) / Fold change /veh C5orf56 (11738088_a_at) / RFU OLFML3 (11715873_a_at) / Fold change /veh OLFML3 (11715873_a_at) / RFU LOC100653217 /// NTM (11731650_a_at) / Fold change /veh LOC100653217 /// NTM (11731650_a_at) / RFU MAPK11 (11762145_a_at) / Fold change /veh MAPK11 (11762145_a_at) / RFU FIZ1 (11724087_x_at) / Fold change /veh FIZ1 (11724087_x_at) / RFU OASL (11726364_x_at) / Fold change /veh OASL (11726364_x_at) / RFU SOX15 (11748057_x_at) / Fold change /veh SOX15 (11748057_x_at) / RFU CD79A (11719716_a_at) / Fold change /veh CD79A (11719716_a_at) / RFU HIST1H1D (11736915_at) / Fold change /veh HIST1H1D (11736915_at) / RFU CASKIN2 (11723855_a_at) / Fold change /veh CASKIN2 (11723855_a_at) / RFU LOC730098 (11760151_x_at) / Fold change /veh LOC730098 (11760151_x_at) / RFU OR4N2 (11742367_at) / Fold change /veh OR4N2 (11742367_at) / RFU PRRT2 (11749266_a_at) / Fold change /veh PRRT2 (11749266_a_at) / RFU SNX32 (11753110_a_at) / Fold change /veh SNX32 (11753110_a_at) / RFU CDHR5 (11726645_a_at) / Fold change /veh CDHR5 (11726645_a_at) / RFU RCAN1 (11760418_a_at) / Fold change /veh RCAN1 (11760418_a_at) / RFU FAM167A (11723789_a_at) / Fold change /veh FAM167A (11723789_a_at) / RFU FAM26E (11764081_at) / Fold change /veh FAM26E (11764081_at) / RFU ISYNA1 (11749810_s_at) / Fold change /veh ISYNA1 (11749810_s_at) / RFU ACY1 (11761880_at) / Fold change /veh ACY1 (11761880_at) / RFU 11764098_at / Fold change /veh 11764098_at / RFU SAMD14 (11745864_x_at) / Fold change /veh SAMD14 (11745864_x_at) / RFU NPB (11741838_a_at) / Fold change /veh NPB (11741838_a_at) / RFU TMPRSS6 (11731388_a_at) / Fold change /veh TMPRSS6 (11731388_a_at) / RFU KRTAP10-2 (11738614_at) / Fold change /veh KRTAP10-2 (11738614_at) / RFU ARHGAP8 /// PRR5-ARHGAP8 (11727945_x_at) / Fold change /veh ARHGAP8 /// PRR5-ARHGAP8 (11727945_x_at) / RFU KRTAP5-7 /// NADSYN1 (11734609_at) / Fold change /veh KRTAP5-7 /// NADSYN1 (11734609_at) / RFU RASL12 (11751679_a_at) / Fold change /veh RASL12 (11751679_a_at) / RFU CDKN2B (11736163_a_at) / Fold change /veh CDKN2B (11736163_a_at) / RFU PRF1 (11729649_at) / Fold change /veh PRF1 (11729649_at) / RFU, ZNF638 /// ZNF638-IT1 / Fold change vs veh, ZNF638 /// ZNF638-IT1 / RFU, PANK3 / Fold change vs veh, PANK3 / RFU, SH3YL1 / Fold change vs veh, SH3YL1 / RFU, ZEB2 / Fold change vs veh, ZEB2 / RFU, NRIP1 / Fold change vs veh, NRIP1 / RFU, PTTG1IP / Fold change vs veh, PTTG1IP / RFU, CAPN2 / Fold change vs veh, CAPN2 / RFU, MED14 / Fold change vs veh, MED14 / RFU, SNORA58 / Fold change vs veh, SNORA58 / RFU, C1orf63 / Fold change vs veh, C1orf63 / RFU, LRRFIP1 / Fold change vs veh, LRRFIP1 / RFU, NDUFAF7 / Fold change vs veh, NDUFAF7 / RFU, SLC12A2 / Fold change vs veh, SLC12A2 / RFU, IBTK / Fold change vs veh, IBTK / RFU, ESF1 / Fold change vs veh, ESF1 / Fold change vs veh, TMEM50B / RFU, TAOK1 / Fold change vs veh, TAOK1 / RFU, ACBD3 / Fold change vs veh, ACBD3 / RFU, TMA16 / Fold change vs veh, TMA16 / RFU, RWDD3 / Fold change vs veh, RWDD3 / RFU, BCAT1 / Fold change vs veh, BCAT1 / RFU, EDEM3 / Fold change vs veh, EDEM3 / RFU, TMEM33 / Fold change vs veh, TMEM33 / RFU, WDR75 / Fold change vs veh, WDR75 / RFU, AHCTF1 / Fold change vs veh, AHCTF1 / RFU, TFRC / Fold change vs veh, TFRC / RFU, ZDHHC17 / Fold change vs veh, ZDHHC17 / RFU, NOM1 / Fold change vs veh, NOM1 / RFU, ARL8B / Fold change vs veh, ARL8B / RFU, ZBTB11 / Fold change vs veh, ZBTB11 / RFU, TAMM41 / Fold change vs veh, TAMM41 / RFU, KIAA1704 /// LOC100996395 / Fold change vs veh, KIAA1704 /// LOC100996395 / RFU, ING1 / Fold change vs veh, ING1 / RFU, TRMT61B / Fold change vs veh, TRMT61B / RFU, FUBP3 / Fold change vs veh, FUBP3 / RFU, TP53 / Fold change vs veh, TP53 / RFU, TNKS2 / Fold change vs veh, TNKS2 / RFU, ZFP14 / Fold change vs veh, ZFP14 / RFU, ACTR2 / Fold change vs veh, ACTR2 / RFU, PPP3R1 / Fold change vs veh, PPP3R1 / RFU, PIK3R1 / Fold change vs veh, PIK3R1 / RFU, HNRNPA1 / Fold change vs veh, HNRNPA1 / RFU, RNF170 / Fold change vs veh, RNF170 / RFU, ZNF28 / Fold change vs veh, ZNF28 / RFU, RNGTT / Fold change vs veh, RNGTT / RFU, OGT / Fold change vs veh, OGT / RFU, BRD1 / Fold change vs veh, BRD1 / RFU, MARS / Fold change vs veh, MARS / RFU, ZNF655 / Fold change vs veh, ZNF655 / RFU, FAHD1 / Fold change vs veh, FAHD1 / RFU, BDP1 / Fold change vs veh, BDP1 / RFU, LRRCC1 / Fold change vs veh, LRRCC1 / RFU, ARID1A / Fold change vs veh, ARID1A / RFU, ZNF146 / Fold change vs veh, ZNF146 / RFU, ZNF330 / Fold change vs veh, ZNF330 / RFU, GPN3 / Fold change vs veh, GPN3 / RFU, C9orf123 / Fold change vs veh, C9orf123 / RFU, N4BP2L2 / Fold change vs veh, N4BP2L2 / RFU, ARFIP1 / Fold change vs veh, ARFIP1 / RFU, FAM179B / Fold change vs veh, FAM179B / RFU, BCL10 / Fold change vs veh, BCL10 / RFU, UHRF1BP1L / Fold change vs veh, UHRF1BP1L / RFU, BET1 / Fold change vs veh, BET1 / RFU, CNOT2 / Fold change vs veh, CNOT2 / RFU, ZNF268 / Fold change vs veh, ZNF268 / Fold change vs veh, ZNF507 / RFU, DGCR2 / Fold change vs veh, DGCR2 / RFU, WDSUB1 / Fold change vs veh, WDSUB1 / Fold change vs veh, HSP90B1 /// MIR3652 / RFU, ADSS / Fold change vs veh, ADSS / RFU, GK / Fold change vs veh, GK / RFU, ZNF148 / Fold change vs veh, ZNF148 / RFU, TAF9 / Fold change vs veh, TAF9 / RFU, SLC1A5 / Fold change vs veh, SLC1A5 / RFU, SLMO2 / Fold change vs veh, SLMO2 / RFU, ABCC4 / Fold change vs veh, ABCC4 / RFU, LOC101060439 /// RAP1B / Fold change vs veh, LOC101060439 /// RAP1B / RFU, RFX7 / Fold change vs veh, RFX7 / RFU, GTPBP10 / Fold change vs veh, GTPBP10 / RFU, CNEP1R1 / Fold change vs veh, CNEP1R1 / RFU, BIVM-ERCC5 /// ERCC5 / Fold change vs veh, BIVM-ERCC5 /// ERCC5 / RFU, ILF3 / Fold change vs veh, ILF3 / RFU 11762660_at / Fold change /veh 11762660_at / RFU VCAN (11757783_s_at) / Fold change /veh VCAN (11757783_s_at) / RFU DDX43 (11728927_at) / Fold change /veh DDX43 (11728927_at) / RFU KRT8 (11758188_x_at) / Fold change /veh KRT8 (11758188_x_at) / RFU NKD1 (11759106_at) / Fold change /veh NKD1 (11759106_at) / RFU SRD5A1 (11742802_a_at) / Fold change /veh SRD5A1 (11742802_a_at) / RFU TPSAB1 /// TPSB2 (11721975_s_at) / Fold change /veh TPSAB1 /// TPSB2 (11721975_s_at) / RFU GSTM3 (11746129_a_at) / Fold change /veh GSTM3 (11746129_a_at) / RFU IL23R (11737362_x_at) / Fold change /veh IL23R (11737362_x_at) / RFU TMEM51 (11727254_a_at) / Fold change /veh TMEM51 (11727254_a_at) / RFU PIWIL2 (11732686_x_at) / Fold change /veh PIWIL2 (11732686_x_at) / RFU ORM1 (11744905_x_at) / Fold change /veh ORM1 (11744905_x_at) / RFU CCDC152 (11743942_at) / Fold change /veh CCDC152 (11743942_at) / RFU ECM1 (11717891_a_at) / Fold change /veh ECM1 (11717891_a_at) / RFU IL23R (11748794_a_at) / Fold change /veh IL23R (11748794_a_at) / RFU TNFAIP8L3 (11732012_x_at) / Fold change /veh TNFAIP8L3 (11732012_x_at) / RFU MBOAT4 (11741988_at) / Fold change /veh MBOAT4 (11741988_at) / RFU 11764193_at / Fold change /veh 11764193_at / RFU TMEM53 (11763286_at) / Fold change /veh TMEM53 (11763286_at) / RFU MAGEB2 (11727129_at) / Fold change /veh MAGEB2 (11727129_at) / RFU TMEM200A (11744735_a_at) / Fold change /veh TMEM200A (11744735_a_at) / RFU CCDC152 (11751479_a_at) / Fold change /veh CCDC152 (11751479_a_at) / RFU FAM211A (11726209_a_at) / Fold change /veh FAM211A (11726209_a_at) / RFU RGS16 (11746705_a_at) / Fold change /veh RGS16 (11746705_a_at) / RFU VCAN (11755009_s_at) / Fold change /veh VCAN (11755009_s_at) / RFU RHOB (11743442_s_at) / Fold change /veh RHOB (11743442_s_at) / RFU RGS16 (11720943_a_at) / Fold change /veh RGS16 (11720943_a_at) / RFU RGS16 (11720944_at) / Fold change /veh RGS16 (11720944_at) / RFU, VPS4B / Fold change vs veh, VPS4B / RFU, CREB1 / Fold change vs veh, CREB1 / RFU, DNAJC13 / Fold change vs veh, DNAJC13 / RFU, GNAQ / Fold change vs veh, GNAQ / RFU, CDK5R1 / Fold change vs veh, CDK5R1 / RFU, ZRANB3 / Fold change vs veh, ZRANB3 / RFU, CUL4A / Fold change vs veh, CUL4A / RFU, CCNY / Fold change vs veh, CCNY / RFU, UFL1 / Fold change vs veh, UFL1 / RFU, COG3 / Fold change vs veh, COG3 / RFU, DIAPH2 / Fold change vs veh, DIAPH2 / RFU, SKA2 / Fold change vs veh, SKA2 / RFU, AFF3 / Fold change vs veh, AFF3 / RFU, LMF1 / Fold change vs veh, LMF1 / RFU, IPO11 / Fold change vs veh, IPO11 / RFU, DFFB / Fold change vs veh, DFFB / RFU, FOXP1 / Fold change vs veh, FOXP1 / RFU, CARD8 / Fold change vs veh, CARD8 / RFU, STRN3 / Fold change vs veh, STRN3 / RFU, ADK / Fold change vs veh, ADK / RFU, RASSF2 / Fold change vs veh, RASSF2 / RFU, WIPF1 / Fold change vs veh, WIPF1 / RFU, LARP1B / Fold change vs veh, LARP1B / RFU, RASA1 / Fold change vs veh, RASA1 / RFU, RB1 / Fold change vs veh, RB1 / RFU, PPFIA1 / Fold change vs veh, PPFIA1 / RFU, MAT2A / Fold change vs veh, MAT2A / RFU, CCT5 / Fold change vs veh, CCT5 / RFU, WDR92 / Fold change vs veh, WDR92 / RFU, CUX1 / Fold change vs veh, CUX1 / RFU, TTC7A / Fold change vs veh, TTC7A / RFU, TMEM135 / Fold change vs veh, TMEM135 / RFU, DEPTOR / Fold change vs veh, DEPTOR / RFU, CPM / Fold change vs veh, CPM / RFU, DNAJB6 / Fold change vs veh, DNAJB6 / RFU, CACNA2D3 / Fold change vs veh, CACNA2D3 / RFU, DTX4 / Fold change vs veh, DTX4 / RFU, TFCP2 / Fold change vs veh, TFCP2 / RFU, GMCL1 /// GMCL1P1 / Fold change vs veh, GMCL1 /// GMCL1P1 / RFU, AEBP2 / Fold change vs veh, AEBP2 / RFU, SNHG1 /// SNORD22 /// SNORD25 /// SNORD26 /// SNORD27 /// SNORD28 /// SNORD29 /// SNORD31 / Fold change vs veh, SNHG1 /// SNORD22 /// SNORD25 /// SNORD26 /// SNORD27 /// SNORD28 /// SNORD29 /// SNORD31 / Fold change (Aza/veh), C12orf56 (ProbeSet 11735607_a_at) / Fold change (ACY-1035/veh), C12orf56 (ProbeSet 11735607_a_at) / Fold change (Aza/veh), FGFR1OP (ProbeSet 11751329_s_at) / Fold change (ACY-1035/veh), FGFR1OP (ProbeSet 11751329_s_at) / Fold change (Aza/veh), VPS36 (ProbeSet 11739960_a_at) / Fold change (ACY-1035/veh), VPS36 (ProbeSet 11739960_a_at) / RFU SYPL1 (11715823_x_at) / Fold change /veh SYPL1 (11715823_x_at) / RFU IGFBP7 (11715501_s_at) / Fold change /veh IGFBP7 (11715501_s_at) / RFU REEP3 (11722064_at) / Fold change /veh REEP3 (11722064_at) / RFU IGLL1 (11728026_x_at) / Fold change /veh IGLL1 (11728026_x_at): dose or concentration left out as unconfirmed
Conditions: MV-4-11 cells, 48 hours

Nc1ccc(-c2cccs2)cc1NC(=O)c1ccc2c(c1)cc(C1CC1)n2CCN1CCOCC1 [ACY-1035]
Fold change /veh HIST1H1D (11736915_at): 0.94
